Square brackets hold non-standard residues; d marks the D form. Peptide text beside a SMILES is read from it. * marks the point of attachment. Phe(F5) = N[C@@H](Cc1c(F)c(F)c(F)c(F)c1F)C(=O)O; Myristoyl = CCCCCCCCCCCCCC(=O)*; NMeA = CN[C@@H](C)C(=O)O; Nle = CCCC[C@H](N)C(=O)O; Sar = CNCC(=O)O
Legend:
rat PrRP receptor = target: T1, rat PrRP receptor (Rattus norvegicus, UniProt Q64121); experiment: Competitive binding in RC-4B/C rat pituitary cells (125I-rat PrRP31); conditions: affinity relative to PrRP31
T1 construct: host or cells: RC-4B/C rat pituitary cell line
T1 sequence (Q64121 1-370): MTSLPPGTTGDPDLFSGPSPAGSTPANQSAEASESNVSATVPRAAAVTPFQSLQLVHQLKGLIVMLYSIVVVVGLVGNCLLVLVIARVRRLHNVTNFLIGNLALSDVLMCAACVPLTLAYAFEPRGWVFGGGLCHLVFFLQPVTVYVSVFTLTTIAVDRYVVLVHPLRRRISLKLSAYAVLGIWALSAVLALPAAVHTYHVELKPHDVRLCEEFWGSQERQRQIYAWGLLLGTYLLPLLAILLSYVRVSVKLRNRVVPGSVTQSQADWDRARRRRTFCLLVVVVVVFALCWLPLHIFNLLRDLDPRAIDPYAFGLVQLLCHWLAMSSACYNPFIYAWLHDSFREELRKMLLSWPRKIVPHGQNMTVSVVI
Description: (§1) Competitive binding experiments were performed according to Motulsky and Neubig (Motulsky, A., et al., “Analyzing radioligand binding data,” Curr Protoc Neurosci, Chapter 7, Unit 7.5, 2002). Binding experiments were conducted with rat pituitary cells, and with Chinese Hamster Ovary (CHO) cells as follows:
The rat pituitary cell line RC-4B/C (ATCC, Manassas, USA) was grown on 24-well plates which had their bottom coated with polyethyleneimine. The cells were grown to the optimal density of 300-450 thousand cells per well. The following agents were used for the experiment: binding buffer (20 mmol·l^−1 HEPES, Ph 7.4; 118 mmol·l^−1 NaCl, 4.7 mmol·l^−1 KCl, 5 mmol·l^−1 MgCl2, 5.5 mmol·l^−1 glucose, 1 mg/ml BSA, 0.1 BPTI), unlabeled analogs of PrRP (i.e. the analog being tested) at a final concentration between 10^−11 to 10^−4 mol·l^−1, and rat ^125I-PrRP31 (labeled with radioactive Iodine-125) at a final concentration of […] (Maixnerová et al., 2011).
(§2) Plates were incubated for 60 minutes at room temperature. After incubation, the cells were solubilized in 0.1 mol/l solution of NaOH, and the radioactivity bound to the cells was counted using a γ-counter. The experiments were performed in duplicate, and repeated at least three times.
(§3) Graph Pad Prism Software (San Diego, Calif., USA) was used for evaluating the competitive binding experiments. Nonlinear regression was performed using a onsite binding model.

[1] = target: T2, human PrRP receptor GPR10 (Homo sapiens, UniProt P49683); experiment: Competitive binding in CHO cells transfected with human GPR10 (human 125I-PrRP31); conditions: affinity relative to PrRP31
T2 construct: host or cells: CHO cells
T2 sequence (P49683 1-370): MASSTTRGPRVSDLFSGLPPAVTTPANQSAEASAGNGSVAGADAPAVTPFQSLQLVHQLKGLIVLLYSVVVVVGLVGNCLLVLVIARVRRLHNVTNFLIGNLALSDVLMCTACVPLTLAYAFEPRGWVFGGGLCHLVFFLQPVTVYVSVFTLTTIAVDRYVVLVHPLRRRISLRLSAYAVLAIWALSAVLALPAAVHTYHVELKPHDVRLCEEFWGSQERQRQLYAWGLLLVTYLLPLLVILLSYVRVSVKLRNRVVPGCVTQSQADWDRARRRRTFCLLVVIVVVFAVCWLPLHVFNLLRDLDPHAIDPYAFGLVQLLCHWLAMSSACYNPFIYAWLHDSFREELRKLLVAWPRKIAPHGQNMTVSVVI
Description: as §1
CHO cells transfected with human PrRP receptor GPR10 (Perkin Elmer, USA) were grown on 24-well plates coated with polyethyleneimine. The cells were grown to the optimal density of 40-80 thousand cells per well. The following agents were used for the experiment: binding buffer (25 mmol·l^−1 Tris, pH 7.4; 118 mmol·l^−1 NaCl, 10 mmol·l^−1 MgCl2, 10 mmol·l^−1 CaCl2, 5.5 mmol·l^−1 glucose, 0.5 mg/ml BSA), unlabeled analogs of PrRP (i.e. the analog being tested) at a final concentration between 10^−11 to 10^−4 mol·l^−1, and radiolabeled human ^125I-PrRP31 at a final concentration of 5×10^−11 mol·l^−1.
as §2, §3

Row | Structure (SMILES) | % of PrRP31, RC-4B/C rat pituitary cells (rat PrRP receptor) [%] | % of PrRP31, GPR10 human receptor transfected in CHO cells [1] [%]
1 | CCCC[C@H](NC(=O)[C@H](CO)NC(=O)[C@H](Cc1c[nH]cn1)NC(=O)[C@H](CCC(N)=O)NC(=O)[C@H](Cc1c[nH]cn1)NC(=O)[C@H](C)NC(=O)[C@H](CCCNC(=N)N)NC(=O)[C@@H](N)CO)C(=O)N[C@@H](CCC(=O)O)C(=O)N[C@H](C(=O)N[C@@H](CCCNC(=N)N)C(=O)N[C@H](C(=O)N1CCC[C@H]1C(=O)N[C@@H](CC(=O)O)C(=O)N[C@H](C(=O)N[C@@H](CC(N)=O)C(=O)N1CCC[C@H]1C(=O)N[C@@H](C)C(=O)N[C@@H](Cc1c[nH]c2ccccc12)C(=O)N[C@@H](Cc1ccc(O)cc1)C(=O)N[C@H](C(=O)NCC(=O)N[C@@H](CCCNC(=N)N)C(=O)NCC(=O)N[C@H](C(=O)N[C@@H](CCCNC(=N)N)C(=O)N1CCC[C@H]1C(=O)N[C@H](C(=O)NCC(=O)N[C@@H](CCCNC(=N)N)C(=O)N[C@@H](Cc1c(F)c(F)c(F)c(F)c1F)C(N)=O)C(C)C)[C@@H](C)CC)[C@@H](C)O)[C@@H](C)CC)[C@@H](C)O)[C@@H](C)O [Analog 21] (H-SRAHQHS[Nle]ETRTPDINPAWYTGRGIRPVGR[Phe(F5)]-NH2) | 51 | 45
2 | CCCC[C@H](NC(=O)[C@H](CO)NC(=O)[C@H](Cc1c[nH]cn1)NC(=O)[C@H](CCC(N)=O)NC(=O)[C@H](Cc1c[nH]cn1)NC(=O)[C@H](C)NC(=O)[C@H](CCCNC(=N)N)NC(=O)[C@@H](N)CO)C(=O)N[C@@H](CCC(=O)O)C(=O)N[C@H](C(=O)N[C@@H](CCCNC(=N)N)C(=O)N[C@H](C(=O)N1CCC[C@H]1C(=O)N[C@@H](CC(=O)O)C(=O)N[C@H](C(=O)N[C@@H](CC(N)=O)C(=O)N1CCC[C@H]1C(=O)N[C@@H](C)C(=O)N[C@@H](Cc1c[nH]c2ccccc12)C(=O)N[C@@H](Cc1ccc(O)cc1)C(=O)N[C@H](C(=O)NCC(=O)N[C@@H](CCCNC(=N)N)C(=O)NCC(=O)N[C@H](C(=O)N[C@@H](CCCNC(=N)N)C(=O)N1CCC[C@H]1C(=O)N[C@H](C(=O)NCC(=O)N[C@@H](CCCNC(=N)N)C(=O)N[C@@H](Cc1ccc(O)cc1)C(N)=O)C(C)C)[C@@H](C)CC)[C@@H](C)O)[C@@H](C)CC)[C@@H](C)O)[C@@H](C)O [Analog 23] (H-SRAHQHS[Nle]ETRTPDINPAWYTGRGIRPVGRY-NH2) | 152 | 193
3 | CC[C@H](C)[C@H](NC(=O)CN(C)C(=O)[C@H](CCCNC(=N)N)NC(=O)CNC(=O)[C@@H](NC(=O)[C@H](Cc1ccc(O)cc1)NC(=O)[C@H](Cc1c[nH]c2ccccc12)NC(=O)[C@H](C)NC(=O)[C@@H]1CCCN1C(=O)[C@H](CC(N)=O)NC(=O)[C@@H](NC(=O)[C@H](CC(=O)O)NC(=O)[C@@H]1CCCN1C(=O)[C@@H](N)[C@@H](C)O)[C@@H](C)CC)[C@@H](C)O)C(=O)N[C@@H](CCCNC(=N)N)C(=O)N1CCC[C@H]1C(=O)N[C@H](C(=O)NCC(=O)N[C@@H](CCCNC(=N)N)C(=O)N[C@@H](Cc1ccccc1)C(N)=O)C(C)C [Analog 27] (H-TPDINPAWYTGR[Sar]IRPVGRF-NH2) | 62 | 86
4 | CCCCCCCCCCCCCC(=O)N[C@H](C(=O)N1CCC[C@H]1C(=O)N[C@@H](CC(=O)O)C(=O)N[C@H](C(=O)N[C@@H](CC(N)=O)C(=O)N1CCC[C@H]1C(=O)N[C@@H](C)C(=O)N[C@@H](Cc1c[nH]c2ccccc12)C(=O)N[C@@H](Cc1ccc(O)cc1)C(=O)N[C@H](C(=O)NCC(=O)N[C@@H](CCCNC(=N)N)C(=O)N(C)CC(=O)N[C@H](C(=O)N[C@@H](CCCNC(=N)N)C(=O)N1CCC[C@H]1C(=O)N[C@H](C(=O)NCC(=O)N[C@@H](CCCNC(=N)N)C(=O)N[C@@H](Cc1ccccc1)C(N)=O)C(C)C)[C@@H](C)CC)[C@@H](C)O)[C@@H](C)CC)[C@@H](C)O [Analog 28] (Myristoyl-TPDINPAWYTGR[Sar]IRPVGRF-NH2) | 1541 | 125
5 | CC[C@H](C)[C@H](NC(=O)CNC(=O)[C@H](CCCNC(=N)N)NC(=O)[C@H](CO)NC(=O)[C@H](C)N(C)C(=O)[C@H](Cc1ccc(O)cc1)NC(=O)[C@H](Cc1c[nH]c2ccccc12)NC(=O)[C@H](C)NC(=O)[C@@H]1CCCN1C(=O)[C@H](CC(N)=O)NC(=O)[C@@H](NC(=O)[C@H](CC(=O)O)NC(=O)[C@@H]1CCCN1C(=O)[C@@H](N)[C@@H](C)O)[C@@H](C)CC)C(=O)N[C@@H](CCCNC(=N)N)C(=O)N1CCC[C@H]1C(=O)N[C@H](C(=O)NCC(=O)N[C@@H](CCCNC(=N)N)C(=O)N[C@@H](Cc1ccccc1)C(N)=O)C(C)C [Analog 29] (H-TPDINPAWY[NMeA]SRGIRPVGRF-NH2) | 10 | 45
6 | CCCCCCCCCCCCCC(=O)N[C@H](C(=O)N1CCC[C@H]1C(=O)N[C@@H](CC(=O)O)C(=O)N[C@H](C(=O)N[C@@H](CC(N)=O)C(=O)N1CCC[C@H]1C(=O)N[C@@H](C)C(=O)N[C@@H](Cc1c[nH]c2ccccc12)C(=O)N[C@@H](Cc1ccc(O)cc1)C(=O)N(C)[C@@H](C)C(=O)N[C@@H](CO)C(=O)N[C@@H](CCCNC(=N)N)C(=O)NCC(=O)N[C@H](C(=O)N[C@@H](CCCNC(=N)N)C(=O)N1CCC[C@H]1C(=O)N[C@H](C(=O)NCC(=O)N[C@@H](CCCNC(=N)N)C(=O)N[C@@H](Cc1ccccc1)C(N)=O)C(C)C)[C@@H](C)CC)[C@@H](C)CC)[C@@H](C)O [Analog 30] (Myristoyl-TPDINPAWY[NMeA]SRGIRPVGRF-NH2) | 1072 | 185
7 | CCCCCCCCCCCCCC(=O)N[C@H](C(=O)N1CCC[C@H]1C(=O)N[C@@H](CC(=O)O)C(=O)N[C@H](C(=O)N[C@@H](CC(N)=O)C(=O)N1CCC[C@H]1C(=O)N[C@@H](C)C(=O)N[C@@H](Cc1c[nH]c2ccccc12)C(=O)N[C@@H](Cc1ccc(O)cc1)C(=O)N[C@H](C(=O)NCC(=O)N[C@@H](CCCNC(=N)N)C(=O)NCC(=O)N[C@@H](C)C(=O)N[C@@H](CCCNC(=N)N)C(=O)N1CCC[C@H]1C(=O)N[C@@H](Cc1ccccc1)C(=O)NCC(=O)N[C@@H](CCCNC(=N)N)C(=O)N[C@@H](Cc1ccccc1)C(N)=O)[C@@H](C)O)[C@@H](C)CC)[C@@H](C)O [Analog 32] (Myristoyl-TPDINPAWYTGRGARPFGRF-NH2) | 68 | 46
8 | CCCCCCCCCCCCCC(=O)N[C@H](C(=O)N1CCC[C@H]1C(=O)N[C@@H](CC(=O)O)C(=O)N[C@H](C(=O)N[C@@H](CC(N)=O)C(=O)N1CCC[C@H]1C(=O)N[C@@H](C)C(=O)N[C@@H](Cc1c[nH]c2ccccc12)C(=O)N[C@@H](Cc1ccc(O)cc1)C(=O)N[C@@H](C)C(=O)N[C@@H](CO)C(=O)N[C@@H](CCCNC(=N)N)C(=O)N1CCC[C@H]1C(=O)N[C@@H](Cc1ccccc1)C(=O)N[C@@H](CCCNC(=N)N)C(=O)N1CCC[C@H]1C(=O)N[C@H](C(=O)NCC(=O)N[C@@H](CCCNC(=N)N)C(=O)N[C@@H](Cc1ccccc1)C(N)=O)C(C)C)[C@@H](C)CC)[C@@H](C)O [Analog 34] (Myristoyl-TPDINPAWYASRPFRPVGRF-NH2) | 587 | 671
